Entries after “also recorded” stand apart in the source; their conditions may differ.
How the values were obtained:
[1] = Stability testing in test buffer (HBSS pH 6.0) under assay conditions, HPLC-DAD; assay type: physicochemical; settings: 10 µM in HBSS pH 6.0, 37 °C, 5% CO2; after 3 h of incubation
Procedure: To guarantee the stability of all test substances during the metabolism assay on Caco-2 cells, they were incubated in the test buffer under assay conditions. Test samples were collected each hour for 5 h and were measured via HPLC-DAD.
To ensure stability during the Caco-2 metabolism experiments, all test substances were dissolved in DMSO to a concentration of 20 mM and diluted to 10 µM in an appropriate volume of HBSS (pH 6.0), resulting in a DMSO concentration of less than 1%. The test solution (1 mL) was aliquoted into a 12-well Transwell® plate and incubated for 5 h in an atmosphere of 5% CO2 and 90% relative humidity at 37 °C. Test samples (100 µL) were collected after t = 0, 1, 2, 3, 4, and 5 h and measured via HPLC-DAD. The peak area of the test substance at time t = 0 h was defined as 100%, and all other peak areas were related to calculate the proportional stability. The stability was calculated as % = area/area0 × 100. Stability testing was performed on three independent days with freshly prepared solutions (n = 3).
The system consisted of the following: Elite LaChrom with an L2200 autosampler, L2130 pump, L2350 column oven, L2444 DAD, and EZChrom Elite 3.1.7 software (Hitachi, Tokyo, Japan); column: Kinetex® Biphenyl, 100 Å, 250-4.6 mm (5 µm, same material precolumn; Phenomenex, Torrance, CA, USA); injection volume 30 µL; oven temp.: 25 °C; autosampler temp.: 10 °C; detection wavelength: 340 nm; flow: 1.2 mL/min; A = H2O + 0.1% TFA, B = acetonitrile + 0.1% TFA; gradient: 0–2 min 10% B, 2–10 min 10% B → 100% B, 10–11 min 100% B → 10% B, 11–15 min 10% B.

Caco-2 cells = test: MTT assay under metabolic conditions (cell viability); assay type: cell-based, human; settings: 10, 25, 50, 75, 100 µM in HBSS (pH 6.0), 5 h incubation
Procedure: All six substances were tested in five different dilutions in HBSS (pH 6.0). The determined viability values of O, IO, S, IS, V, and IV are listed in the Supplementary Materials (Figure S2).
Caco-2 cells in the logarithmic growth phase were seeded in 96-well plates at a density of 3 × 10^4 cells/well and incubated at 37 °C in an atmosphere of 5% CO2 and constant moisture in an incubator. After 24 h, the cell culture medium was removed, and 100 µL of HBSS solution (negative control), 0.5% DMSO in HBSS solution (solvent control), or flavonoid samples in HBSS solution (6 flavonoids at concentrations of 10, 25, 50, 75, and 100 µM) was applied in quintuplicate and incubated for 5 h. Afterwards, the HBSS solutions were removed and replaced with an MTT solution in DMEM (0.4 mg/mL) and incubated for another 3 h at 37 °C. Then, the MTT solution was discarded, and the cells were fixed with a 10% SDS solution in PBS and stored at room temperature in the dark. After 24 h, the absorbance was measured on a Tecan microplate reader (Tecan Trading AG, Switzerland) at 560 nm. The viability rate was calculated as % = A/A0 × 100, with A as the average absorbance value of the treatment and solvent control groups and A0 as the average absorbance value of the negative control group. The assay was performed three times in pentaplicate.
The human colon adenocarcinoma cell line Caco-2 was obtained from the ATCC (American Type Culture Collection, Manassas, VA, USA). The cell line was determined to be free of mycoplasma contamination by PCR and culture from GATC Biotech AG (Konstanz, Germany). The cells were cultured in DMEM supplemented with 10% (v/v) FBS, 1% (v/v) NEAA, and 1% (v/v) antibiotics (penicillin/streptomycin) in an atmosphere of 5% CO2 and 90% relative humidity at 37 °C. The culture medium was replaced every 3 days, and the cells were split 1:5 using trypsin-EDTA once 90% confluence was obtained.

Caco-2 cell monolayer = test: Caco-2 monolayer metabolism experiment, metabolites identified via UHPLC-DAD-MS(/MS); assay type: in vitro ADME, human; settings: for Metabolites of the aglycones (cleavage of the C–C glycosidic bond): 100 µM approach; for Possible metabolite (phase II metabolite identified by MS/MS fragmentation and comparison with reference compound after enzymatic hydrolysis): glucuronidase/sulfatase cleavage, UHPLC-DAD-MS/MS; for Extent of phase I and II metabolism (in words): independent of incubation time and concentration
Procedure: To obtain information on the in vitro metabolism of the six tested C-glycosidic flavonoids in the intestine, experiments were carried out using the Caco-2 monolayer model (Figure 2). Metabolite profiles were characterized at two different concentrations (10 and 100 µM; n = 3) and after two different incubation times (3 or 5 h; n = 3) in order to determine the influence of concentration and time on the metabolism reactions that occurred. Furthermore, to analyze the distribution of the observed metabolites, samples were collected from the cell lysate and the apical and basolateral compartments. All samples of the metabolism experiments using the Caco-2 cell monolayer were analyzed using UHPLC-DAD-MS and UHPLC-DAD-MS/MS. Metabolites were identified by libraries that were prepared for each compound (Tables S1–S6). The O and IO libraries contained 67 metabolites (Tables S1 and S2), the S and IS libraries contained 106 metabolites (Tables S3 and S4), and the V and IV libraries contained 71 possible metabolites (Tables S5 and S6).
To form a confluent and differentiated monolayer, cells at passages 16–45 were seeded into the inserts of 12-well Transwell® plates at a density of 3.0 × 10^5 cells/cm^2. Afterwards, the culture medium was replaced every day, and the metabolism experiment was performed 21 days after seeding. The apical and basolateral compartments contained 0.5 and 1.5 mL of cell culture medium, respectively.
On day 21, the cell culture medium was removed from the apical and basolateral compartments, and the Caco-2 cell monolayer was washed two times with prewarmed HBSS. The Transwell® plates containing HBSS were incubated at 37 °C for 15 min to measure the transepithelial electrical resistance (TEER) value. The integrity of the cell monolayers was evaluated by TEER values between the apical and basolateral sides with the Evohm2 system (World Precision Instruments, Sarasota, FL, USA). The cell inserts were only used for the metabolism experiments if the resistance exceeded 350 Ω/cm^2. The six test substances were dissolved in DMSO to a stock solution of 20 mM. The HBSS was adjusted to pH 6.0 and 7.4 with 1 M HCl. Afterwards, the stock solutions were diluted to 10 or 100 µM in an appropriate volume of HBSS (pH 6.0) to obtain a DMSO concentration of <1%. The test solutions were added to the apical side (0.5 mL), while the basolateral side was filled with 1.5 mL of HBSS (pH 7.4). The Transwell® plates were incubated at 37 °C for 3 or 5 h, respectively. After this period, solutions from the apical and basolateral compartments were collected in separate tubes, washed twice with 500 µL of HBSS, and then collected again. The samples were lyophilized and stored at −20 °C until they were measured using UHPLC-DAD-MS. After the experiment, Transwell® inserts were apically (0.5 mL) and basolaterally (1.5 mL) filled with HBSS and warmed to 37 °C for 20 min. Then, the TEER values were measured to guarantee the integrity of the monolayer during the experiment. The experiment was performed in triplicate for each substance, concentration, and incubation time.
After the metabolism experiment, cell monolayers were washed twice with PBS and incubated with 200 µL of trypsin-EDTA for 10 min at 37 °C in an atmosphere of 5% CO2 and constant humidity in the incubator. The cells were removed from the well by pipetting up and down, and were collected in a tube. The well was washed twice with PBS (1 mL), and the wash solution was also collected in the corresponding tube. The mixture was centrifuged (1000× g rpm, 5 min), and the supernatant was discarded.

[2] = metabolite at RT 5.134 min, m/z 477.0674
[3] = metabolite at RT 5.476 min, m/z 461.0724
[4] = initial concentration 10 µM, 3 h, apical compartment
[5] = initial concentration 10 µM, 3 h, basolateral compartment
[6] = initial concentration 10 µM, 5 h, apical compartment
[7] = initial concentration 100 µM, 3 h, apical compartment
[8] = initial concentration 100 µM, 3 h, basolateral compartment
[9] = initial concentration 100 µM, 5 h, apical compartment
[10] = initial concentration 100 µM, 5 h, cell lysate

| Stability (content relative to t = 0 h) [1] | Extent of metabolism (in words) (Caco-2 cell monolayer; 100 µM, 3 and 5 h) | Possible metabolite (phase II metabolite identified by MS/MS fragmentation and comparison with reference compound after enzymatic hydrolysis) (Caco-2 cell monolayer; [2]) | Possible metabolite (phase II metabolite identified by MS/MS fragmentation and comparison with reference compound after enzymatic hydrolysis) (Caco-2 cell monolayer; [3]) | SMILES | Effect on the viability of Caco-2 cells (in words) (Caco-2 cells) | Extent of metabolism (in words) (Caco-2 cell monolayer; 10 µM, 3 and 5 h) | Metabolites of the aglycones (cleavage of the C–C glycosidic bond) (Caco-2 cell monolayer) | Extent of phase I and II metabolism (in words) (Caco-2 cell monolayer) | Possible metabolite detected (Caco-2 cell monolayer; [4]) | Possible metabolite detected (Caco-2 cell monolayer; [5]) | Possible metabolite detected (Caco-2 cell monolayer; [6]) | Possible metabolite detected (Caco-2 cell monolayer; [7]) | Possible metabolite detected (Caco-2 cell monolayer; [8]) | Possible metabolite detected (Caco-2 cell monolayer; [9]) | Possible metabolite detected (Caco-2 cell monolayer; [10]) | other results |
| --- | --- | --- | --- | --- | --- | --- | --- | --- | --- | --- | --- | --- | --- | --- | --- | --- |
| approximately 100% | extensive metabolism | Quercetin-glucuronide | Luteolin-glucuronide | O=c1cc(-c2ccc(O)c(O)c2)oc2cc(O)c([C@@H]3O[C@H](CO)[C@@H](O)[C@H](O)[C@H]3O)c(O)c12 [IO, isoorientin] | no significant effects at any concentration | broader ranges of phase I and II metabolites | metabolites of the corresponding aglycones apigenin and luteolin were also detected | highly metabolized in phase I and II reactions | Isoorientin-sulfate; also recorded: Hydroxy-luteolin-glucuronide; also recorded: Hydroxy-methoxy-isoorientin | Isoorientin-sulfate; also recorded: Hydroxy-methoxy-isoorientin | Isoorientin-sulfate; also recorded: Hydroxy-methoxy-isoorientin | Methoxy-isoorientin-sulfate; also recorded: Hydroxy-luteolin-glucuronide; also recorded: Methoxy-luteolin; also recorded: Hydroxy-methoxy-isoorientin | Isoorientin-sulfate; also recorded: Hydroxy-methoxy-isoorientin | Hydroxy-isoorientin; also recorded: Methoxy-isoorientin-sulfate; also recorded: Hydroxy-luteolin-glucuronide | Isoorientin-sulfate; also recorded: Methoxy-isoorientin | Possible metabolite (phase II metabolite identified by MS/MS fragmentation and comparison with reference compound after enzymatic hydrolysis) (Caco-2 cell monolayer; metabolite at RT 2.514 5.107 min, m/z 527.0501): IO-sulfate; Possible metabolite detected (Caco-2 cell monolayer; initial concentration 100 µM, 3 h, cell lysate): Isoorientin-sulfate; also recorded: Methoxy-isoorientin; Possible metabolite detected (Caco-2 cell monolayer; initial concentration 100 µM, 5 h, basolateral compartment): Isoorientin-sulfate |
| approximately 100% | extensive metabolism | Quercetin-glucuronide | Luteolin-glucuronide | O=c1cc(-c2ccc(O)c(O)c2)oc2c([C@@H]3O[C@H](CO)[C@@H](O)[C@H](O)[C@H]3O)c(O)cc(O)c12 [O, orientin] | no significant effects at any concentration | broader ranges of phase I and II metabolites | metabolites of the corresponding aglycones apigenin and luteolin were also detected | highly metabolized in phase I and II reactions | Orientin-sulfate; also recorded: Hydroxy-methoxy-orientin | Orientin-sulfate; also recorded: Hydroxy-methoxy-orientin | Orientin-sulfate; also recorded: Methoxy-orientin | Orientin-sulfate; also recorded: Hydroxy-luteolin-glucuronide; also recorded: Methoxy-luteolin; also recorded: Hydroxy-methoxy-orientin | Orientin-sulfate | Orientin-sulfate; also recorded: Hydroxy-luteolin-glucuronide; also recorded: Hydroxy-methoxy-orientin | Methoxy-orientin | Possible metabolite (phase II metabolite identified by MS/MS fragmentation and comparison with reference compound after enzymatic hydrolysis) (Caco-2 cell monolayer; metabolite at RT 3.146 min, m/z 527.0499): O-sulfate |

| SMILES | Stability (content relative to t = 0 h) [1] | Extent of metabolism (in words) (Caco-2 cell monolayer; 100 µM, 3 and 5 h) | Possible metabolite (phase II metabolite identified by MS/MS fragmentation and comparison with reference compound after enzymatic hydrolysis) (Caco-2 cell monolayer; [2]) | Possible metabolite (phase II metabolite identified by MS/MS fragmentation and comparison with reference compound after enzymatic hydrolysis) (Caco-2 cell monolayer; [3]) | Effect on the viability of Caco-2 cells (in words) (Caco-2 cells) | Extent of metabolism (in words) (Caco-2 cell monolayer; 10 µM, 3 and 5 h) | Metabolites of the aglycones (cleavage of the C–C glycosidic bond) (Caco-2 cell monolayer) | Extent of phase I and II metabolism (in words) (Caco-2 cell monolayer) | Possible metabolite detected (Caco-2 cell monolayer; [4]) | Possible metabolite detected (Caco-2 cell monolayer; [5]) | Possible metabolite detected (Caco-2 cell monolayer; [6]) | Possible metabolite detected (Caco-2 cell monolayer; [7]) | Possible metabolite detected (Caco-2 cell monolayer; [8]) | Possible metabolite detected (Caco-2 cell monolayer; [9]) | Possible metabolite detected (Caco-2 cell monolayer; [10]) | other results |
| --- | --- | --- | --- | --- | --- | --- | --- | --- | --- | --- | --- | --- | --- | --- | --- | --- |
| O=c1cc(-c2ccc(O)cc2)oc2c([C@@H]3O[C@H](CO)[C@@H](O)[C@H](O)[C@H]3O)c(O)c([C@@H]3OC[C@H](O)[C@H](O)[C@H]3O)c(O)c12 [IS, isoschaftoside] | approximately 100% | a few hydroxylated and methoxylated derivatives | – | – | no significant effects at any concentration | very limited metabolism | – | poorly metabolized in phase I and II reactions | – | – | – | Methoxy-isoschaftoside | – | – | – | Phase II conjugates containing glucuronic acid or sulfates (Caco-2 cell monolayer; 10 µM, 3 and 5 h): No phase II conjugates containing glucuronic acid or sulfates were detectable; Phase II metabolites with glucuronic acid or sulfates (Caco-2 cell monolayer; 100 µM, 3 and 5 h): lacked the presence of phase II metabolites with glucuronic acid or sulfates |

— publication PMC8234803, “In Vitro Metabolism of Six C-Glycosidic Flavonoids from Passiflora incarnata L” (International Journal of Molecular Sciences, 2021)
